Here are results for 9 compounds from ChEMBL document CHEMBL1158054, “Cytotoxic monotetrahydrofuran acetogenins from Disepalum plagioneurum” (J Nat Prod, 2006).

The subject of the test is KB. Nature of the test: Cytotoxicity against human KB cells. It counts as functional, cell-based.
As a reminder, the IC50 is the midpoint of a concentration-inhibition curve. A low value points to inhibition by little substance. The compound `CCCCCCCCCCCC[C@@H](O)[C@H]1CC[C@H]([C@H](O)CC(CCCCC(O)CCCCCCCC2=C[C@H](C)OC2=O)OC(C)=O)O1` (some centres undefined) [PLAGIONEURIN A] displayed an IC50 of 2.4 nM.

`CCCCCCCCCCCC[C@H](O)[C@H]1CC[C@H]([C@@H](O)CC(CCCCC(O)CCCCCCCC2=C[C@H](C)OC2=O)OC(C)=O)O1` (some centres undefined) [PLAGIONEURIN B] gave an IC50 of 6.5 nM.

The compound `CCCCCCCCCCCC[C@@H](O)[C@H]1CC[C@H]([C@H](O)CC(CCCCC(=O)CCCCCCCC2=C[C@H](C)OC2=O)OC(C)=O)O1` (some centres undefined) [PLAGIONEURIN C] returned a concentration for half-maximal inhibition (IC50) of 26 nM.

Turning to `CCCCCCCCCCCC[C@@H](O)[C@H]1CC[C@H]([C@H](O)CC(CCCCC(=O)CCCC[C@@H](O)CCC2=C[C@H](C)OC2=O)OC(C)=O)O1` (some centres undefined) [PLAGIONEURIN D], 2.8 nM corresponded to half-maximal inhibition (IC50).

The compound `CCCCCCCCCCCC[C@@H](O)[C@H]1CC[C@H]([C@H](O)CC(CCCCC(=O)CCCCC(O)CCC2=C[C@H](C)OC2=O)OC(C)=O)O1` (some centres undefined) [PLAGIONEURIN E] had an IC50 of 2.6 nM.

`CCCCCCCCCCCC[C@@H](O)[C@H]1CC[C@H]([C@H](O)CCCCC(O)CCCC[C@@H](O)CCC2=C[C@H](C)OC2=O)O1` (some centres undefined) [PLAGIONICIN A]: the IC50 was 2 nM.

`CCCCCCCCCCCC[C@@H](O)[C@H]1CC[C@@H]([C@@H](O)CCCCC(=O)CCCCC(O)CCC2=C[C@H](C)OC2=O)O1` (some centres undefined) [PLAGIONICIN B] gave an IC50 of 1400 nM.

Regarding `CCCCCCCCCCCC[C@@H](O)[C@H]1CC[C@@H]([C@@H](O)CCCC(O)CCCCCC(O)C(O)CC2=C[C@H](C)OC2=O)O1` (some centres undefined) [PLAGIONICIN C], the IC50 stood at 6 nM.

With `CCCCCCCCCCCC[C@@H](O)[C@H]1CC[C@H]([C@H](O)CCCC(O)C(O)CCCCC(=O)CCC2=C[C@H](C)OC2=O)O1` (some centres undefined) [PLAGIONICIN D], the half-maximal inhibitory concentration (IC50) stood at 26 nM.
